Data from patent US20160279079A1, “COMPOSITIONS AND METHODS FOR TREATING BONE DISEASES” (INDIANA UNIVERSITY RESEARCH AND TECHNOLOGY CORPORATION, priority 2013, published 2016).

Tests used:
Format in all cases: cell-based, mouse
[1] = test system: RAW264.7 cells; experiment: Osteoclastogenesis in vitro and TRAP staining; details: for number of TRAP-positive multi-nucleated cells: with 20 ng/ml RANKL, 5 days of culture; for growth area covered by multi-nucleated cells: dose dependent
Experimental: METHOD EXAMPLE. Inhibition of osteoclastogenesis of RAW264.7 cells by salubrinal. The primary aim of this study is to evaluate the effects of salubrinal on osteoclastogenesis. In response to 0.1-20 μM salubrinal for 24 h, cell mortality and live cell numbers of RAW264.7 pre-osteoclasts was examined. […] The number of live cells was increased by ˜50% by incubation with RANKL, and administration of 10-20 μM salubrinal reduced the numbers approximately by 10% (FIG. 3B).
METHOD EXAMPLE. Inhibitory effects of guanabenz on osteoclastogenesis of RAW264.7 cells. To further examine a potential involvement of p-eIF2α in regulation of osteoclastogenesis, we employed guanabenz that also acts as an inhibitor of de-phosphorylation of eIF2α was evaluated. […] Compared to the number of TRAP-positive multi-nucleated cells of 377 39 (RANKL only), guanabenz reduced the number of differentiated osteoclasts to 364±38 (1 μM), 288±51 (5 μM), 189±25 (10 μM), and 73±16 (20 μM).
METHOD EXAMPLE. Osteoclastogenesis in vitro and TRAP (Tartrate-resistant acid phosphatase) staining. RAW264.7 cells were plated at a density of 5×10^3/cm^2 into a 12-well or a 60 mm dish, and cultured with 20 ng/ml RANKL in the presence and absence of salubrinal or guanabenz. The culture medium was replaced every 2 days. After 5 days of culture, the cells were stained for TRAP staining using an acid phosphatase leukocyte kit (Sigma). The number of TRAP-positive cells containing three or more nuclei was determined

[2] = test system: NFATc1; experiment: Quantitative real-time PCR, NFATc1 mRNA in RAW264.7 cells
Experimental: METHOD EXAMPLE. Quantitative real-time PCR. Total RNA was extracted using an RNeasy Plus mini kit (Qiagen, Germantown, Md., USA). Reverse transcription was conducted with high capacity cDNA reverse transcription kits (Applied Biosystems, Carlsbad, Calif., USA), and quantitative real-time PCR was performed using ABI 7500 with Power SYBR green PCR master mix kits (Applied Biosystems). We evaluated mRNA levels of ATF4, Osteocalcin (OCN), NFATcl, c-Fos, tartrate-resistant acid phosphatase (TRAP), and osteoclast-associated receptor (OSCAR) with the PCR primers listed in Table 1. GAPDH was used for internal control. The relative mRNA abundance for the selected genes with respect to the level of GAPDH mRNA was expressed as a ratio of Streated/Scontrol, where Streated=mRNA level for the cells treated with chemical agents, and Scontrol=mRNA level for control cells.
METHOD EXAMPLE. Partial suppression of mRNA levels of NFATcl, c-Fos, TRAP, and OSCAR by salubrinal. […] On day 2, for instance, the RANKL-driven increase was 9.4±0.5 fold (NFATcl), 1.9±0.1 fold (c-fos), 165±4.2 fold (TRAP), and 467±22 fold (OSCAR). The reduction by 20 μM salubrinal was 46% (NFATcl), 32% (c-fos), 35% (TRAP), and 21% (OSCAR) (FIG. 5A).
(§1) METHOD EXAMPLE. Reduction of RANKL-induced NFATcl, c-Fos, TRAP, and OSCAR by guanabenz. […] The normalized level of “1” was defined as the level for the cells that were not treated with RANKL without administration of guanabenz.

[3] = test system: NFATc1; experiment: Western immunoblotting, NFATc1 expression in RAW264.7 cells; details: for expression of NFATc1: absence of RANKL administration
Experimental: METHOD EXAMPLE. Downregulation of NFATcl in RAW264.7 cells by salubrinal. NFATcl is a transcription factor critical for activating osteoclastogenesis. […] The RANKL-induced expression of NFATcl was reduced by administration of 5-20 μM salubrinal on both days, and the effect of salubrinal was dose dependent (FIG. 4).
as §1
(§2) METHOD EXAMPLE. Western Immunoblotting. Cells were lysed in a radioimmunoprecipitation assay (RIPA) buffer containing protease inhibitors (Santa Cruz Biotechnology, Santa Cruz, Calif., USA) and phosphatase inhibitors (Calbiochem, Billerica, Mass., USA). Isolated proteins were fractionated using 10-15% SDS gels and electro-transferred to Immobilon-P membranes (Millipore, Billerica, Mass., USA). The membrane was incubated for 1 h with primary antibodies followed by 45 min incubation with goat anti-rabbit or anti-mouse IgG conjugated with horseradish peroxidase (Cell Signaling, Danvers, Mass., USA). We used antibodies against ATF4, NFATcl (Santa Cruz), p-eIF2α (Thermo Scientific, Waltham, Mass., USA), eIF2α, caspase 3, cleaved caspase 3, p38 and p-p38 mitogen activated protein kinase (MAPK), extracellular signal-regulated kinase (ERK) and p-ERK, nuclear factor kappa B (NFκB) p65 and p-NFκB p65 (Cell Signaling), and β-actin (Sigma). Protein levels were assayed using a SuperSignal west femto maximum sensitivity substrate (Thermo Scientific), and signal intensities were quantified with a luminescent image analyzer (LAS-3000, Fuji Film, Tokyo, Japan).
METHOD EXAMPLE. Temporal profile of p-eIF2α and NFATcl. […] Note that the normalized level of “1” in FIG. 6C was defined as the level for the cells that were not treated with RANKL without administration of guanabenz.

[4] = test system: NFATc1; experiment: NFATc1 expression after RNA interference for eIF2α in RAW264.7 cells; details: for reduction of NFATc1: 20 μM
Experimental: as §2
METHOD EXAMPLE. Knockdown of ATF4 and eIF2α by siRNA. Cells were treated with siRNA specific to ATF4 and eIF2α (Life Technologies). Selected target sequences for knockdown of ATF4 and eIF2α were: ATF4, 5′-GCU GCU UAC AUU ACU CUA A-3′; and eIF2α, 5′-CGG UCA AAA UUC GAG CAG A-3′. As a nonspecific control, a negative siRNA (Silencer Select #1, Life Technologies) was used. Cells were transiently transfected with siRNA for ATF4, eIF2α or control in Opti-MEM I medium with Lipofectamine RNAiMAX (Life Technologies). Six hours later, the medium was replaced by regular culture medium. The efficiency of silencing was assessed with immunoblotting or quantitative PCR 48 h after transfection.
METHOD EXAMPLE. Reduction in salubrinal/guanabenz-driven suppression of NFATcl expression by RNA interference for eTF2α. To evaluate the effects of eIF2α on the expression level of NFATcl, RNA interference specific for eIF2α together with a non-specific control (NC) was used (FIG. 10). […] However, the expression of NFATcl was reduced only by 20% in the cells transfected with eIF2α siRNA.

[5] = cells transfected with the control siRNA

Structure (SMILES)	number of TRAP-positive multi-nucleated cells ([1]; 1 μM)	number of TRAP-positive multi-nucleated cells ([1]; 5 μM)	number of TRAP-positive multi-nucleated cells ([1]; 10 μM)	number of TRAP-positive multi-nucleated cells ([1]; 20 μM)	growth area covered by multi-nucleated cells [1]	osteoclastogenesis of RAW264.7 cells ([1]; guanabenz dose response, with RANKL)	NFATc1 mRNA level ([2]; 20 μM guanabenz, 2 days after RANKL)	temporal expression profile of NFATc1 ([3]; 20 μM guanabenz, with RANKL)	expression of NFATc1 [3]	induction of NFATc1 by RANKL ([3]; guanabenz dose response, 2 days after RANKL)	suppressive effect on NFATc1 level ([4]; 20 μM guanabenz, transfection of eIF2α siRNA)	reduction of NFATc1 [4, 5] [%]	number of TRAP-positive cells ([1]; 0.5 μM to 20 μM salubrinal, with RANKL)	reduction of NFATc1 mRNA level ([2]; 20 μM salubrinal, day 2 after RANKL) [%]	NFATc1 mRNA level ([2]; 0.1-1 μM salubrinal, with RANKL, except on day 4)	reduction of the level of NFATc1 ([3]; 20 μM salubrinal, 8 h, with RANKL) [%]	reduction of the level of NFATc1 ([3]; 20 μM salubrinal, 24 h, with RANKL) [%]	level of NFATc1 ([3]; 20 μM salubrinal, early period (2-4 h), with RANKL)	RANKL-induced expression of NFATc1 ([3]; 5-20 μM salubrinal, day 2 and day 4, dose dependent)	reduction of NFATc1 ([4]; cells transfected with eIF2α siRNA) [%]
N=C(N)N/N=C/c1c(Cl)cccc1Cl [guanabenz]	364±38	288±51	189±25	73±16	significantly reduced	attenuated osteoclastogenesis of RAW264.7 cells in a dose dependent manner	reduced	partially suppressed in 8 h	did not significantly alter	suppressed by guanabenz in a dose dependent manner	abolished the suppressive effect	43								
O=C(/C=C/c1ccccc1)NC(NC(=S)Nc1cccc2cccnc12)C(Cl)(Cl)Cl (centres unmarked) [salubrinal]					significantly reduced				did not significantly alter			56	reduced the number of TRAP-positive cells in a dose dependent manner	46	did not contribute to significant reduction	48	44	did not alter	reduced	20
